The target of this assay is T1, TAK1 (Homo sapiens, UniProt O43318).
T1 construct: gene MAP3K7
T1 sequence (O43318 1-303): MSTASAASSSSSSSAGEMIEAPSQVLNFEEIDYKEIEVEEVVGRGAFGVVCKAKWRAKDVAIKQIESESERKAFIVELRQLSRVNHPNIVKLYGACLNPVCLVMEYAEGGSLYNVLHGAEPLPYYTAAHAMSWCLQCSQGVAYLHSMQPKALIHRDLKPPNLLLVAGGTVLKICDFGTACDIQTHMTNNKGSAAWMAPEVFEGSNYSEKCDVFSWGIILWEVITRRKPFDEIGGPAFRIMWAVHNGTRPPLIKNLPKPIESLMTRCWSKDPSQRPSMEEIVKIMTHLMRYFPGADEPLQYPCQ
T1 sequence (Q15750 437-504 partner): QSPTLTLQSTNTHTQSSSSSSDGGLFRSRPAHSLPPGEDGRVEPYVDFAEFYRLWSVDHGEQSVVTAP
Put plainly: in vitro kinase inhibition (IC50); selectivity profiled by KiNativ, Ambit and radioactive filter binding panels. The assay is classed as biochemical.

Drawing on PMC3377608, “The IkappaB Kinase Family Phosphorylates the Parkinson’s Disease Kinase LRRK2 at Ser935 and Ser910 during Toll-Like Receptor Signaling” (PLoS ONE, 2012), this text covers IC50 for one compound.

Broadly, the IC50 is the midpoint of a concentration-inhibition curve. Take `CCN1CCN(Cc2ccc(NC(=O)c3ccc(C)c(Oc4ccnc5[nH]ccc45)c3)cc2C(F)(F)F)CC1` [NG25]: the IC50 is 4 nM.
